# From US20220288001A1, “CREATINE FOR IMMUNOTHERAPY” (The Regents of the University of California, priority 2019, published 2022)
# “Also recorded” adds a separate entry of the source.
# Experiments:
# MC38 colon cancer = MC38 colon cancer model, creatine supplementation and anti-PD-1 treatment; format: in vivo, mouse; details: MC38 (CrT-negative); creatine supplementation alone
# Experimental: To establish solid tumors, mice were s.c. injected above the right flank with 1×10^6 B16-OVA or 3×10^5 MC38 cells. Before injection, cells in log phase of growth were harvested and suspended in phosphate-buffered saline (PBS), and 50 μl of cell suspension were injected subcutaneously above the flank. Tumor size was periodically measured with a digital Vernier caliper (Thermo Fisher Scientific). For creatine supplementation via i.p. injection, […] monohydrate (cat #C3630, Sigma-Aldrich) was dissolved in sterile PBS and i.p. injected to experimental animals daily at a dose of 10.5 mg per animal per injection. To study the combination effects of creatine supplementation and PD-1/PD-L1 blockade treatment, B6 mice were inoculated with MC38 tumor cells and monitored for tumor growth; experimental mice also received i.p. supplement of creatine, as well as i.p. injection of an anti-PD-1 blocking antibody (clone RMP1-14; 300 μg/mouse/injection, twice per week) or an isotype control antibody (clone 2A3; 300 μg/mouse/injection, twice per week), alone or in combination. Tumor-free mice were maintained for three months, then challenged with MC38 tumor cells again and monitored for tumor recurrence over another 6-month period.
# B16-OVA melanoma = B16-OVA melanoma model in C57BL/6J WT mice, creatine supplementation; format: in vivo, mouse; details: i.p. injection or dietary supplementation, both routes
# Experimental: To establish solid tumors, mice were s.c. injected above the right flank with 1×10^6 B16-OVA or 3×10^5 MC38 cells. Before injection, cells in log phase of growth were harvested and suspended in phosphate-buffered saline (PBS), and 50 μl of cell suspension were injected subcutaneously above the flank. Tumor size was periodically measured with a digital Vernier caliper (Thermo Fisher Scientific). For creatine supplementation via i.p. injection, […] monohydrate (cat #C3630, Sigma-Aldrich) was dissolved in sterile PBS and i.p. injected to experimental animals daily at a dose of 10.5 mg per animal per injection. […] To study the effects of creatine supplementation on suppressing tumor growth, B6 mice were inoculated with B16-OVA tumor cells and monitored for tumor growth, with or without receiving creatine supplementation via i.p. injection or diet. […] To study the T cell-dependence of creatine supplementation induced anti-tumor effects, B6-OVA tumor growth was monitored and compared in B6 mice receiving i.p. injection of an anti-CD3 T cell depleting antibody (clone RMP1-14; 100 μg/mouse/injection, twice per week) or an isotype control antibody (clone LTF-2, 100 μg/mouse/injection, twice per week), with or without i.p. supplement of creatine.
# cancer growth = details: early studies (Kristensen et al., 1999; Miller et al., 1993); cited from earlier work
# Zap-70 = assay: Western blot of TCR proximal signaling in CD8 T cells with creatine supplementation; format: cell-based, mouse; details: CrT-WT CD8 T cells; creatine 0.5 mM; anti-CD3 stimulation
# Experimental: CD8 T cells were cultured in vitro in standard T cell culture medium comprising RPMI 1640 (Cat #10040, Corning), 10% FBS (Cat #F2442, Sigma), 1% Penicillin-Streptomycin-Glutamine (Cat #10378016, Gibco), 1% MEM Non-Essential Amino Acids Solution (Cat #11140050, Gibco), 1% HEPES (Cat #15630080, Gibco), 1% Sodium Pyruvate (100 mM) (Cat #11360070, Gibco), and 0.05 mM β -Mercaptoethanol (Cat #M3148, Sigma). Unless otherwise indicated, cells were seeded at 0.5×10^6 cells per well in 24-well plates and stimulated with plate-bound anti-CD3 (5 μg/ml) (clone 145-2C11), for up to 5 days. At indicated time point(s), cells were collected and analyzed for CrT mRNA expression using qPCR, for cell proliferation through cell counting, for viability through Annexin V/7-AAD staining followed by flow cytometry analysis, for surface activation marker (CD25) expression through surface staining followed by flow cytometry analysis, for effector molecule (Granzyme B, IL-2, and IFN-γ) production through intracellular staining followed by flow cytometry analysis, and for cytokine (IL-2 and IFN-γ) secretion through collecting cell culture supernatants followed by ELISA analysis. CrT protein expression and TCR signaling events were analyzed using western blot analysis. […]
structure (smiles),measurement,setting,value
CN(CC(=O)O)C(=N)N [creatine],tumor suppression,MC38 colon cancer,tumor suppression benefits
same,tumor growth,B16-OVA melanoma,effectively suppressed tumor growth to a similar extent; also recorded: tumor suppression benefits
same,direct inhibition of cancer growth,cancer growth,could directly inhibit cancer growth
same,Zap-70 phosphorylation,Zap-70,significantly increased
